In ChEMBL document CHEMBL2385010, “Discovery of aryl ureas and aryl amides as potent and selective histamine H3 receptor antagonists for the treatment of obesity (part I)” (Bioorg Med Chem Lett, 2013):
≈ marks a conversion by molar mass, not a printed value.

Key:
[1] = target: Histamine H1 receptor (Homo sapiens) (UniProt P35367); test: Antagonist activity at human histamine H1 receptor assessed as inhibition of calcium mobilization at 10 uM by FLIPR assay relative to control; format: functional
Chain of Histamine H1 receptor (Homo sapiens) (P35367 whole entry): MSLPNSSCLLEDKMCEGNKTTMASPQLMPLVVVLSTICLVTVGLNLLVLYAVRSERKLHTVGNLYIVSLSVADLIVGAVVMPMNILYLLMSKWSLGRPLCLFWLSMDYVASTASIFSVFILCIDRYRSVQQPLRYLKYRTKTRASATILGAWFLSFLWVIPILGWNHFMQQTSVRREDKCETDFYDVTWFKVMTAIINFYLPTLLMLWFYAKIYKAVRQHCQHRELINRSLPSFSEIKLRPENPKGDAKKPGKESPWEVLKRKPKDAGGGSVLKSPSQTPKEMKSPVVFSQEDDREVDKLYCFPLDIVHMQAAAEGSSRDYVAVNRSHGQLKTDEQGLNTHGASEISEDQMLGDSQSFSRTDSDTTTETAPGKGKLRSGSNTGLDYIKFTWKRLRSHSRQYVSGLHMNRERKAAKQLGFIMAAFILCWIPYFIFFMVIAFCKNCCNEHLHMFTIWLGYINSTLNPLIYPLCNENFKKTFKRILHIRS

[2] = target: Melanin-concentrating hormone receptor 1 (Homo sapiens) (UniProt Q99705); test: Antagonist activity at human MCH1R assessed as inhibition of calcium mobilization at 10 uM by FLIPR assay relative to control; format: functional
Chain of Melanin-concentrating hormone receptor 1 (Homo sapiens) (Q99705 whole entry): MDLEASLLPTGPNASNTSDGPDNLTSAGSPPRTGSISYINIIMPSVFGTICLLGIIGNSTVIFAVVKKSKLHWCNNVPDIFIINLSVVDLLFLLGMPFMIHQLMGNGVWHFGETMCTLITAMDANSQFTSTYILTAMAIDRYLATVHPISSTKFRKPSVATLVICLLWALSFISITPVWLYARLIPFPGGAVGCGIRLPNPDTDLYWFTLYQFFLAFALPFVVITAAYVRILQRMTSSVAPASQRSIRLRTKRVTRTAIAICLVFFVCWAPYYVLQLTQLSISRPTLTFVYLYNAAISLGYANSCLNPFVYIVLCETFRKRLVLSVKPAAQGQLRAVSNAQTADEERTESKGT

[3] = target: Histamine H2 receptor (Homo sapiens) (UniProt P25021); test: Antagonist activity at human histamine H2 receptor assessed as inhibition of calcium mobilization at 10 uM by FLIPR assay relative to control; format: functional
Chain of Histamine H2 receptor (Homo sapiens) (P25021 whole entry): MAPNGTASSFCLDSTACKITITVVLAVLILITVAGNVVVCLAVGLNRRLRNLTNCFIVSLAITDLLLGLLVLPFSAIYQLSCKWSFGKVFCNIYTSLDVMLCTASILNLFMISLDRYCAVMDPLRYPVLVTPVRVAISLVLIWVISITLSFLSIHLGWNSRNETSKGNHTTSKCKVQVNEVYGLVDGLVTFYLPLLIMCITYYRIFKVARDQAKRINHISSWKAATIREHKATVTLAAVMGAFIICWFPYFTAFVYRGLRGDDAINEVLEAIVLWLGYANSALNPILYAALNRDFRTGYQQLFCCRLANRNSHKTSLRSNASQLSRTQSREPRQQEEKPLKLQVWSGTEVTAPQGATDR

Histamine H3 receptor [4] = target: T1, Histamine H3 receptor (Homo sapiens, UniProt Q9Y5N1); test: Antagonist activity at human histamine H3 receptor expressed in HEK293 cells assessed as inhibition of calcium mobilization by FLIPR assay; format: functional, cell-based
T1 sequence (Q9Y5N1 whole entry): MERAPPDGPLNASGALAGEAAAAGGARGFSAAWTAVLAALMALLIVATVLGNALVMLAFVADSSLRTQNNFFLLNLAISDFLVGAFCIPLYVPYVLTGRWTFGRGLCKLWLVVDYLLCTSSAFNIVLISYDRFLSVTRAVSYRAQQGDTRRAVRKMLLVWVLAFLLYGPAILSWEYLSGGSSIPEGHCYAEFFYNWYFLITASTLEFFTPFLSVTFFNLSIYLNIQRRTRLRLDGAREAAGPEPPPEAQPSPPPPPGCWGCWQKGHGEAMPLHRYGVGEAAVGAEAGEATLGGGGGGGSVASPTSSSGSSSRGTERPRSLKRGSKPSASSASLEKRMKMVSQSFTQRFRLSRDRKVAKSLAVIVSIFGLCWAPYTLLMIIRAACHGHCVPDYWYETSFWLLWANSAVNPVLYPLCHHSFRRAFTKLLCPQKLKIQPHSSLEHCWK

Histamine H3 receptor [5] = target: T1, Histamine H3 receptor; test: Antagonist activity at human histamine H3 receptor in human T-REx-293 cells assessed as inhibition of basal GTPgammaS binding at 10 uM after 90 mins by scintillation counting analysis relative to control; format: functional, cell-based; settings: HEK293
Histamine receptor H3 = Histamine receptor H3 (Macaca mulatta, UniProt Q865E1); test: Displacement of [3H]N-alpha-methylhistamine from cloned rhesus monkey histamine H3 receptor transfected in CHO cells after 1 hr by scintillation counting analysis; format: cell-based
Chain of Histamine receptor H3 (Q865E1 whole entry): as the sequence (Q9Y5N1 whole entry) above, with D148N, A240G, V282A, A289T, T290A, V300A, H442Q counted along it

[6] = Drug metabolism in rat liver microsomes; format: ADME, Microsome; settings: read-out: Drug metabolism
[7] = Drug metabolism in mouse liver microsomes; format: ADME, Microsome; settings: read-out: Drug metabolism
Histamine H3 receptor [8] = target: T1, Histamine H3 receptor; test: Displacement of [3H]N-alpha-methylhistamine from cloned human histamine H3 receptor transfected in CHO cells after 1 hr by scintillation counting analysis; format: cell-based
Histamine H3 receptor [9] = target: Histamine H3 receptor (Rattus norvegicus, UniProt Q9QYN8); test: Displacement of [3H]N-alpha-methylhistamine from cloned rat histamine H3 receptor transfected in CHO cells after 1 hr by scintillation counting analysis; format: cell-based
Chain of Histamine H3 receptor (Rattus norvegicus, UniProt Q9QYN8) (Q9QYN8 whole entry): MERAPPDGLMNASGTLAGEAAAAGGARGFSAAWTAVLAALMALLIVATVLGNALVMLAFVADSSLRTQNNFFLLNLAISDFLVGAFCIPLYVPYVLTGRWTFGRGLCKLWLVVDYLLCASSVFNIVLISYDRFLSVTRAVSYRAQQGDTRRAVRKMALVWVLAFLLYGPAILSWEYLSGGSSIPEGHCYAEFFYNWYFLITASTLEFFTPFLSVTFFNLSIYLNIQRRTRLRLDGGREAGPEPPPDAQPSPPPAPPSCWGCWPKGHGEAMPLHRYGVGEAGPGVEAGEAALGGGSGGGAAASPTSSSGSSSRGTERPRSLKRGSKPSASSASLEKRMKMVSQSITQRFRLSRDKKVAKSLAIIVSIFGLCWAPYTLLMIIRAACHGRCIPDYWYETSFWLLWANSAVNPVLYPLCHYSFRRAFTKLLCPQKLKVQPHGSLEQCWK

[10] = Drug metabolism in human liver microsomes; format: ADME, Microsome; settings: read-out: Drug metabolism
[11] = Solubility of the compound; format: physicochemical
hERG (KCNH2) = hERG (KCNH2) (Homo sapiens, UniProt Q12809); test: Inhibition of human ERG at 10 uM relative to control
Chain of hERG (KCNH2) (Q12809 whole entry): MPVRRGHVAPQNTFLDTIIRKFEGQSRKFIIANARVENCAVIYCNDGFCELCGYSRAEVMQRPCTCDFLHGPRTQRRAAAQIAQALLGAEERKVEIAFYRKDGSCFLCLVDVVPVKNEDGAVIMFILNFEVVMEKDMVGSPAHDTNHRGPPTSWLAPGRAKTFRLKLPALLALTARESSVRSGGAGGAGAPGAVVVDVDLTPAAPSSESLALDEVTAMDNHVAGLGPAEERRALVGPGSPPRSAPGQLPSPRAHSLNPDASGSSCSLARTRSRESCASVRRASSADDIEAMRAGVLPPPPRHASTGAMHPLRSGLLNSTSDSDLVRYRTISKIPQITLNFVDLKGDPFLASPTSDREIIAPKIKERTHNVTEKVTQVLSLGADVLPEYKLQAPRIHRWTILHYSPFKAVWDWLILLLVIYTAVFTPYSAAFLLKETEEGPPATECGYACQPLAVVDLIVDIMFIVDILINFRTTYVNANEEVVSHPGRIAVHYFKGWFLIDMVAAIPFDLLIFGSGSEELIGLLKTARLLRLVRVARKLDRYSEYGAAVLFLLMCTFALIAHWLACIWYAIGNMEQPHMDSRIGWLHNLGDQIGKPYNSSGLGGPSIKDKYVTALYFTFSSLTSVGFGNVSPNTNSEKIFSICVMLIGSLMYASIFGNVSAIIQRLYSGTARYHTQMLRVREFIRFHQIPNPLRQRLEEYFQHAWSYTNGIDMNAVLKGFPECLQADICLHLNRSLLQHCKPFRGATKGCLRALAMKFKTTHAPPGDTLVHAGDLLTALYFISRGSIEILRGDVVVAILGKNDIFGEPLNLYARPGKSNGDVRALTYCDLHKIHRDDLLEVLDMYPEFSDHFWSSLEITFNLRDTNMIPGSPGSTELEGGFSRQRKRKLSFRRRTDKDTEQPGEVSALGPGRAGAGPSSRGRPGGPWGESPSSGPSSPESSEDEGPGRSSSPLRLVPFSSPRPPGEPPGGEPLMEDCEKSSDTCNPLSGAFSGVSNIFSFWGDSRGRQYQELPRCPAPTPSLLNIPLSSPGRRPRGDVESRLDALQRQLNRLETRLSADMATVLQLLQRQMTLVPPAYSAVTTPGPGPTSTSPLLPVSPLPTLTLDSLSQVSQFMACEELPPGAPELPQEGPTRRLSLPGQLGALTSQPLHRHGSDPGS

Compound	inhibition [1] [%]	inhibition [2] [%]	inhibition [3] [%]	IC50 (Histamine H3 receptor [4]) [nM]	inhibition (Histamine H3 receptor [5]) [%]	further results
Cc1cc(N2CCC(N3CCCC3C)C2)ccc1NC(=O)N1CCN(C)CC1 (configuration not stated)	< 40	< 40	< 40	0.8	120	
CN(C)CCOc1ccc(NC(=O)Nc2ccc(F)cc2F)cc1				149	102	
CCN(CC)CCOc1ccc(NC(=O)Nc2c(Cl)cccc2Cl)cc1				1	116	
CCN(CC)CCCOc1ccc(NC(=O)Nc2ccc(F)cc2F)cc1				7.9	124	
O=C(Nc1ccc(Cl)cc1)Nc1ccc(OCCN2CCCCC2)cc1				27.5	105	
CC1CCCN1C1CCN(c2ccc(NC(=O)Nc3ccc(Oc4ccccc4)cc3)cc2)C1 (configuration not stated)	< 40	< 40	< 40	1.4	113	Ki (Histamine receptor H3): 46.8 nM
O=C(Nc1ccc(OCCN2CCCCC2)cc1)Nc1ccc(F)cc1F				40.5	115	
CN(C)CCc1ccc(NC(=O)Nc2ccc(CCN(C)C)cc2)cc1				6.5	94.7	
CC(=O)N1CCN(C(=O)Nc2ccc(N3CCC(N4CCCC4C)C3)c(C)c2)CC1 (configuration not stated)	< 40	< 40	< 40	2.3	115	
Cc1cc(NC(=O)N2CCN(C)CC2)ccc1N1CCC(N2CCCC2C)C1 (configuration not stated)	< 40	< 40	< 40	1.1	118	
CCN(CC)CCOc1ccc(NC(=O)Nc2ccc(F)cc2F)cc1				111	117	
CC(=O)N(C)C1CCN(C(=O)Nc2ccc(N3CCC(N4CCCC4C)C3)c(C)c2)C1 (configuration not stated)	< 40	< 40	< 40	1.1	118	
Cc1cc(N2CCC(N3CCCC3C)C2)ccc1NC(=O)Nc1cc(Cl)cc(Cl)c1 (configuration not stated)	< 40	< 40	< 40	0.9	126	inhibition at 10 µM (hERG (KCNH2)): 74%; solubility [11]: 10.5 µg/mL (≈ 23.5 µM)
CCOc1ccc(C)cc1NC(=O)Nc1ccc(OCCN(CC)CC)cc1				9.1	107	
CN(C)CCOc1ccc(NC(=O)Nc2ccc(Cl)cc2)cc1				16.4	99	
Cc1cc(NC(=O)Nc2cc(Cl)cc(Cl)c2)ccc1N1CCC(N2CCCC2C)C1 (configuration not stated)	< 40	< 40	< 40	3.1	103	
Cc1cccc(NC(=O)Nc2ccc(OCCN(C)C)cc2)c1C				73.1	94	
CC1CCCN1C1CCN(c2ccc(NC(=O)Nc3cc(Cl)cc(Cl)c3)cc2)C1 (configuration not stated)	< 40	< 40	< 40	1.2	103	
Cc1cccc(NC(=O)Nc2ccc(OCCCN(C)C)cc2)c1C				14.7	125	
Cc1cc(NC(=O)NCc2cc(Cl)cc(Cl)c2)ccc1N1CCC(N2CCCC2C)C1 (configuration not stated)	< 40	< 40	< 40	1.1	130	
CC(=O)N(C)C1CCN(C(=O)Nc2ccc(N3CCC(N4CCCC4C)C3)cc2)C1 (configuration not stated)	< 40	< 40	< 40	1.1	109	
CCN(CC)CCOc1ccc(NC(=O)Nc2ccc(Cl)cc2Cl)cc1				39.1	118	

Stronger by IC50 (Histamine H3 receptor [4]), values ahead:

inhibition [1] [%]	inhibition [2] [%]	inhibition [3] [%]	IC50 (Histamine H3 receptor [4]) [nM]	inhibition (Histamine H3 receptor [5]) [%]	Compound	further results
< 40	< 40	< 40	0.2	144	CC1CCCN1C1CCN(c2ccc(NC(=O)NCc3cc(Cl)cc(Cl)c3)cc2)C1 (configuration not stated)	Ki (Histamine receptor H3): 7.1 nM
< 40	< 40	< 40	0.1	122	CC1CCCN1C1CCN(c2ccc(NC(=O)NC3CCCCC3)cc2)C1 (configuration not stated)	
			0.7	119	O=C(Nc1ccc(Cl)cc1)Nc1ccc(OCCCN2CCCCC2)cc1	
< 40	< 40	< 40	0.1	129	CC1CCCN1C1CCN(c2ccc(NC(=O)NCc3cccs3)cc2)C1 (configuration not stated)	Ki (Histamine receptor H3): 1.9 nM
			0.2	133	Cc1c(Cl)cc(NC(=O)Nc2ccc(OCCCN3CCCCC3)cc2)cc1Cl	metabolised [6]: 36%; metabolised [7]: 34%; Ki (Histamine H3 receptor [8]): 112 nM; Ki (Histamine H3 receptor [9]): 135 nM; metabolised [10]: 10%; Ki (Histamine receptor H3): 18.2 nM; solubility [11]: 6 µg/mL (≈ 13.7 µM)
< 40	< 40	< 40	0.2	132	CC1CCCN1C1CCN(c2ccc(NC(=O)N3CCN(C)CC3)cc2)C1 (configuration not stated)	
< 40	< 40	< 40	0.2	130	Cc1cc(NC(=O)NC2CCCCC2)ccc1N1CCC(N2CCCC2C)C1 (configuration not stated)	
< 40	< 40	< 40	0.2	110	Cc1cc(N2CCC(N3CCCC3C)C2)ccc1NC(=O)NC1CCCCC1 (configuration not stated)	
< 40	< 40	< 40	0.6	126	Cc1cc(NC(=O)Nc2ccc(Oc3ccccc3)cc2)ccc1N1CCC(N2CCCC2C)C1 (configuration not stated)	Ki (Histamine receptor H3): 115 nM
< 40	< 40	< 40	0.4	122	CC1CCCN1C1CCN(c2ccc(NC(=O)N3CCN(c4ccccc4)CC3)cc2)C1 (configuration not stated)	
< 40	< 40	< 40	0.3	108	CC1CCCN1C1CCN(c2ccc(NC(=O)N3CCCCC3)cc2)C1 (configuration not stated)	
< 40	< 40	< 40	0.5	125	O=C(Nc1ccc(OCCCN2CCCCC2)cc1)Nc1cc(Cl)cc(Cl)c1	Ki (Histamine receptor H3): 3.4 nM
< 40	< 40	< 40	0.2	125	Cc1cc(NC(=O)NCc2cccs2)ccc1N1CCC(N2CCCC2C)C1 (configuration not stated)	
			0.5	128	O=C(Nc1ccc(OCCCN2CCCCC2)cc1)Nc1ccc(F)cc1F	Ki (Histamine H3 receptor [8]): 52 nM; Ki (Histamine H3 receptor [9]): 33 nM; Ki (Histamine receptor H3): 3.4 nM
			0.6	129	CCN(CC)CCOc1ccc(NC(=S)Nc2ccc(OCC(C)C)cc2)cc1	Ki (Histamine H3 receptor [8]): 16.8 nM; Ki (Histamine H3 receptor [9]): 39.9 nM; Ki (Histamine receptor H3): 15.7 nM
< 40	< 40	< 40	0.5	127	CC(=O)N1CCN(C(=O)Nc2ccc(N3CCC(N4CCCC4C)C3)cc2)CC1 (configuration not stated)	
